Results published in publication PMC8428802 (Journal of medicinal chemistry, 2020).
One block for each compound: values may come before it.

What was measured:
human GPR52 = human GPR52 (Homo sapiens, UniProt Q9Y2T5); assay: Glosensor cAMP assay in HEK293 cells transiently expressing human GPR52; format: cell-based; conditions: for decreased EC50 (loss of potency): comparator not stated
[1] = target: over 30 brain receptors or channels; assay: NIMH-PDSP broad-panel counter screening; format: binding; conditions: 10 μM
[2] = tested on: HEK293 cells lacking GPR52; assay: cAMP control study in HEK293 cells lacking GPR52; format: cell-based, human
hERG = hERG (Homo sapiens, UniProt Q12809); assay: NIMH-PDSP counter screening, hERG binding; conditions: 10 μM
Chain of hERG (Q12809 whole entry): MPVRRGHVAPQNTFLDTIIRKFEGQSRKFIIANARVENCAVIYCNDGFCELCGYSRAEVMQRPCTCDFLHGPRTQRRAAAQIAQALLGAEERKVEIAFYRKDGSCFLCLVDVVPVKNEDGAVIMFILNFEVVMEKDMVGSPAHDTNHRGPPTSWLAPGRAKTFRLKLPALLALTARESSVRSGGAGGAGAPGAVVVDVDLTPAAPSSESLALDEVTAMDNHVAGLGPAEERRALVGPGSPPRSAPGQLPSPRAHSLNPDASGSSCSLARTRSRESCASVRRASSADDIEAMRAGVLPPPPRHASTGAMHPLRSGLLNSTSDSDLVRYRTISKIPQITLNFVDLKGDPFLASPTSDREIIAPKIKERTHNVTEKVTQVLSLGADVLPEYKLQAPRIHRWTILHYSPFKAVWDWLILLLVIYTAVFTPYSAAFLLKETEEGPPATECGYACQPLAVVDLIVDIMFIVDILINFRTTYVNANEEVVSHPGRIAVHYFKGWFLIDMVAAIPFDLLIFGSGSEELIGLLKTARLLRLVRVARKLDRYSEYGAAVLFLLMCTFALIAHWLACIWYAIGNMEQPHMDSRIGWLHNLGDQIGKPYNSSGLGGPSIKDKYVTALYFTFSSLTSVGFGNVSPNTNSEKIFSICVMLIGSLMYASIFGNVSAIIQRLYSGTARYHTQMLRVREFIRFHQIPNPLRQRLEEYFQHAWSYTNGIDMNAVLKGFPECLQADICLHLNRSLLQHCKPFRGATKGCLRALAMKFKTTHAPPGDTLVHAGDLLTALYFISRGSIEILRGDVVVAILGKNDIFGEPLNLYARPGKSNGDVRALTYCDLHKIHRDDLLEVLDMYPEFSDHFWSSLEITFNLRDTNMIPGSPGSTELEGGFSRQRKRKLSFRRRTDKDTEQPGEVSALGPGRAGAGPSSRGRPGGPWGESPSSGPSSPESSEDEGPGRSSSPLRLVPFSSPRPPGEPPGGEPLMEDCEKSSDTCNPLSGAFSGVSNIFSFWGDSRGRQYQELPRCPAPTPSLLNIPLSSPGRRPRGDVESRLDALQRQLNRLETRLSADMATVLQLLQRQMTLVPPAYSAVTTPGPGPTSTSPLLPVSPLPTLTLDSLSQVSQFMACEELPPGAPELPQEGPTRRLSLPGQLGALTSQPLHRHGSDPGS

Chain of human GPR52 (Q9Y2T5 whole entry): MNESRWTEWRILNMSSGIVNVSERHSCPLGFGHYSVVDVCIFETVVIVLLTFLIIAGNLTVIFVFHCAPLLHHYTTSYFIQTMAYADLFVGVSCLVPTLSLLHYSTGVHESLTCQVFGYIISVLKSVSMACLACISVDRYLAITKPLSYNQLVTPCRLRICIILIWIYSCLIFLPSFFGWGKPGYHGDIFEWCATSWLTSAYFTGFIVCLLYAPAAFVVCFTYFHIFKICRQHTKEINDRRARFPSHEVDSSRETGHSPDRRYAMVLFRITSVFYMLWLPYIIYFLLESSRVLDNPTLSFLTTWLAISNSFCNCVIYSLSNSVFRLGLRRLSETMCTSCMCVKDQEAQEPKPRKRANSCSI

loss of potency relative to 23a (human GPR52; EC50 vs compound 23a): > 7 fold
SMILES: O=C(NCCO)c1cccc2c1CCN2c1cc(Cc2ccccc2C(F)(F)F)ncn1 [Compound 23b, N-(2-Hydroxyethyl)-1-(6-(2-(trifluoromethyl)benzyl)-pyrimidin-4-yl)indoline-4-carboxamide]

binding affinity (Ki) at panel [1]: no significant binding affinity
SMILES: O=C(NCCO)c1cccc2c1CCN2c1cc(Cc2cc(F)cc(C(F)(F)F)c2)ncn1 [Compound 12c, 1-(6-(3-Fluoro-5-(trifluoromethyl)benzyl)pyrimidin-4-yl)-N-(2-hydroxyethyl)indoline-4-carboxamide]
cAMP increase in cells lacking GPR52 [2]: did not increase cAMP | hERG potassium channel binding activity (hERG): did not show any

SMILES: O=C(NCCO)c1cccc2c1CCN2c1nncc(Cc2cc(F)cc(C(F)(F)F)c2)c1Cl [Compound 12f, 1-(4-Chloro-5-(3-fluoro-5-(trifluoromethyl)benzyl)-pyridazin-3-yl)-N-(2-hydroxyethyl)indoline-4-carboxamide]
decreased EC50 (loss of potency) (human GPR52): > 4 fold

SMILES: Cc1c(Cc2cc(F)cc(C(F)(F)F)c2)cnnc1N1CCc2c(C(=O)NCCO)cccc21 [Compound 12e, 1-(5-(3-Fluoro-5-(trifluoromethyl)benzyl)-4-methylpyridazin-3-yl)-N-(2-hydroxyethyl)indoline-4-carboxamide]
decreased EC50 (loss of potency) (human GPR52): > 4 fold
